# Calls of active or inactive are those of the source. The rule behind the calls is not given here.
# Tested on: CCRIS mutagenicity, Ames/micronucleus/aberration tests
# Experiment: CCRIS mutagenicity studies
# [1] = Test System: AMES SALMONELLA TYPHIMURIUM, Strain/Indicator: TA98, Metabolic Activation: HAMSTER, LIVER, S-9, AROCLOR 1254 (10%), Method: PREINCUBATION
# [2] = Test System: AMES SALMONELLA TYPHIMURIUM, Strain/Indicator: TA98, Metabolic Activation: RAT, LIVER, S-9, AROCLOR 1254 (10%), Method: PREINCUBATION
# [3] = Test System: AMES SALMONELLA TYPHIMURIUM, Strain/Indicator: TA100, Metabolic Activation: HAMSTER, LIVER, S-9, AROCLOR 1254 (10%), Method: PREINCUBATION
# [4] = Test System: AMES SALMONELLA TYPHIMURIUM, Strain/Indicator: TA100, Metabolic Activation: NONE, Method: PREINCUBATION
# [5] = Test System: AMES SALMONELLA TYPHIMURIUM, Strain/Indicator: TA100, Metabolic Activation: RAT, LIVER, S-9, AROCLOR 1254 (10%), Method: PREINCUBATION
# [6] = Test System: MOUSE LYMPHOMA, Strain/Indicator: L5178Y (TK+/TK-), Metabolic Activation: NONE, Method: SUSPENSION/PLATE
# [7] = Test System: MOUSE LYMPHOMA, Strain/Indicator: L5178Y (TK+/TK-), Metabolic Activation: RAT, LIVER, S-9, AROCLOR 1254, Method: SUSPENSION/PLATE
# [8] = Test System: AMES SALMONELLA TYPHIMURIUM, Strain/Indicator: TA98, Metabolic Activation: NONE, Method: PREINCUBATION
# [9] = Test System: AMES SALMONELLA TYPHIMURIUM, Strain/Indicator: TA1535, Metabolic Activation: HAMSTER, LIVER, S-9, AROCLOR 1254 (10%), Method: PREINCUBATION
# [10] = Test System: AMES SALMONELLA TYPHIMURIUM, Strain/Indicator: TA1535, Metabolic Activation: NONE, Method: PREINCUBATION
# [11] = Test System: AMES SALMONELLA TYPHIMURIUM, Strain/Indicator: TA1535, Metabolic Activation: RAT, LIVER, S-9, AROCLOR 1254 (10%), Method: PREINCUBATION
# [12] = Test System: AMES SALMONELLA TYPHIMURIUM, Strain/Indicator: TA1537, Metabolic Activation: HAMSTER, LIVER, S-9, AROCLOR 1254 (10%), Method: PREINCUBATION
# [13] = Test System: AMES SALMONELLA TYPHIMURIUM, Strain/Indicator: TA1537, Metabolic Activation: NONE, Method: PREINCUBATION
# [14] = Test System: AMES SALMONELLA TYPHIMURIUM, Strain/Indicator: TA1537, Metabolic Activation: RAT, LIVER, S-9, AROCLOR 1254 (10%), Method: PREINCUBATION
smiles,measurement,setting,value
Clc1nc(Cl)nc(Nc2ccccc2Cl)n1,mutagenic call,"Test System: AMES SALMONELLA TYPHIMURIUM, Strain/Indicator: TA97, Metabolic Activation: HAMSTER, LIVER, S-9, AROCLOR 1254 (10 OR 30%), Method: PREINCUBATION",inactive; negative
same,mutagenic call,"Test System: AMES SALMONELLA TYPHIMURIUM, Strain/Indicator: TA97, Metabolic Activation: RAT, LIVER, S-9, AROCLOR 1254 (10 OR 30%), Method: PREINCUBATION",inactive; negative
same,mutagenic call,[1],inactive; negative
same,mutagenic call,"Test System: AMES SALMONELLA TYPHIMURIUM, Strain/Indicator: TA98, Metabolic Activation: HAMSTER, LIVER, S-9, AROCLOR 1254 (30%), Method: PREINCUBATION",inactive; negative
same,mutagenic call,[2],inactive; negative
same,mutagenic call,"Test System: AMES SALMONELLA TYPHIMURIUM, Strain/Indicator: TA98, Metabolic Activation: RAT, LIVER, S-9, AROCLOR 1254 (30%), Method: PREINCUBATION",inactive; negative
same,mutagenic call,[3],inactive; negative
same,mutagenic call,"Test System: AMES SALMONELLA TYPHIMURIUM, Strain/Indicator: TA100, Metabolic Activation: HAMSTER, LIVER, S-9, AROCLOR 1254 (30%), Method: PREINCUBATION",inactive; negative
same,mutagenic call,[4],inactive; negative
same,mutagenic call,[5],inactive; negative
same,mutagenic call,"Test System: AMES SALMONELLA TYPHIMURIUM, Strain/Indicator: TA100, Metabolic Activation: RAT, LIVER, S-9, AROCLOR 1254 (30%), Method: PREINCUBATION",inactive; negative
same,mutagenic call,"Test System: AMES SALMONELLA TYPHIMURIUM, Strain/Indicator: TA1535, Metabolic Activation: HAMSTER, LIVER, S-9, AROCLOR 1254 (10 OR 30%), Method: PREINCUBATION",inactive; negative
same,mutagenic call,"Test System: AMES SALMONELLA TYPHIMURIUM, Strain/Indicator: TA1535, Metabolic Activation: RAT, LIVER, S-9, AROCLOR 1254 (10 OR 30%), Method: PREINCUBATION",inactive; negative
same,mutagenic call,"Test System: AMES SALMONELLA TYPHIMURIUM, Strain/Indicator: TA1537, Metabolic Activation: HAMSTER, LIVER, S-9, AROCLOR 1254 (10 OR 30%), Method: PREINCUBATION",inactive; negative
same,mutagenic call,"Test System: AMES SALMONELLA TYPHIMURIUM, Strain/Indicator: TA1537, Metabolic Activation: RAT, LIVER, S-9, AROCLOR 1254 (10 OR 30%), Method: PREINCUBATION",inactive; negative
same,mutagenic call,"Test System: CHINESE HAMSTER OVARY, Strain/Indicator: CHO-K1-BH4 (HGPRT)/6-THIOGUANINE, Metabolic Activation: NONE",inactive; negative
same,mutagenic call,"Test System: CHINESE HAMSTER OVARY, Strain/Indicator: CHO-K1-BH4 (HGPRT)/6-THIOGUANINE, Metabolic Activation: S-9",inactive; negative
same,mutagenic call,"Test System: E. COLI, Strain/Indicator: WP2 UVRA, Metabolic Activation: HAMSTER, LIVER, S-9, AROCLOR 1254, Method: STANDARD PLATE",inactive; negative
same,mutagenic call,"Test System: E. COLI, Strain/Indicator: WP2 UVRA, Metabolic Activation: HAMSTER, LIVER, S-9, Method: STANDARD PLATE",inactive; negative
same,mutagenic call,"Test System: E. COLI, Strain/Indicator: WP2 UVRA, Metabolic Activation: MOUSE, LIVER, S-9, AROCLOR 1254, Method: STANDARD PLATE",inactive; negative
same,mutagenic call,"Test System: E. COLI, Strain/Indicator: WP2 UVRA, Metabolic Activation: MOUSE, LIVER, S-9, Method: STANDARD PLATE",inactive; negative
same,mutagenic call,"Test System: E. COLI, Strain/Indicator: WP2 UVRA, Metabolic Activation: NONE, Method: STANDARD PLATE",inactive; negative
same,mutagenic call,"Test System: E. COLI, Strain/Indicator: WP2 UVRA, Metabolic Activation: RAT, LIVER, S-9, AROCLOR 1254, Method: STANDARD PLATE",inactive; negative
same,mutagenic call,"Test System: E. COLI, Strain/Indicator: WP2 UVRA, Metabolic Activation: RAT, LIVER, S-9, Method: STANDARD PLATE",inactive; negative
same,mutagenic call,[6],active; positive
same,mutagenic call,[7],active; positive
CC(CCN(C)C)N(C)C (configuration not stated),mutagenic call,[1],inactive; negative
same,mutagenic call,[8],inactive; negative
same,mutagenic call,[2],inactive; negative
same,mutagenic call,"Test System: AMES SALMONELLA TYPHIMURIUM, Strain/Indicator: TA98, Metabolic Activation: RAT, LIVER, S-9, PCB, Method: PREINCUBATION",inactive; negative
same,mutagenic call,[3],inactive; negative
same,mutagenic call,[4],inactive; negative
same,mutagenic call,[5],inactive; negative
same,mutagenic call,"Test System: AMES SALMONELLA TYPHIMURIUM, Strain/Indicator: TA100, Metabolic Activation: RAT, LIVER, S-9, PCB, Method: PREINCUBATION",inactive; negative
same,mutagenic call,[9],inactive; negative
same,mutagenic call,[10],inactive; negative
same,mutagenic call,[11],inactive; negative
same,mutagenic call,[12],inactive; negative
same,mutagenic call,[13],inactive; negative
same,mutagenic call,[14],inactive; negative
O.O.O=N[O-].O=N[O-].O=N[O-].O=N[O-].[K+].[K+].[Pt],mutagenic call,[8],inactive; negative
same,mutagenic call,"Test System: AMES SALMONELLA TYPHIMURIUM, Strain/Indicator: TA98, Metabolic Activation: RAT, LIVER, S-9, AROCLOR 1254, Method: PREINCUBATION",inactive; negative
same,mutagenic call,[4],inactive; negative
same,mutagenic call,"Test System: AMES SALMONELLA TYPHIMURIUM, Strain/Indicator: TA100, Metabolic Activation: RAT, LIVER, S-9, AROCLOR 1254, Method: PREINCUBATION",inactive; negative
Cc1nc2ccc(NCCN(C)C)c3c(=O)c4cc(O)ccc4n1c23,mutagenic call,"Test System: CHINESE HAMSTER V-79, Strain/Indicator: V-79 (HGPRT)/6-THIOGUANINE, Metabolic Activation: NONE",active; positive
COc1c(Cl)c(Cl)c(Cl)c(Cl)c1Cl,mutagenic call,[1],inactive; negative
same,mutagenic call,"Test System: AMES SALMONELLA TYPHIMURIUM, Strain/Indicator: TA98, Metabolic Activation: MOUSE, LIVER, S-9, AROCLOR 1254, Method: PREINCUBATION",inactive; negative
same,mutagenic call,[2],inactive; negative
same,mutagenic call,[3],inactive; negative
same,mutagenic call,"Test System: AMES SALMONELLA TYPHIMURIUM, Strain/Indicator: TA100, Metabolic Activation: MOUSE, LIVER, S-9, AROCLOR 1254, Method: PREINCUBATION",inactive; negative
same,mutagenic call,[4],inactive; negative
same,mutagenic call,[5],inactive; negative
same,mutagenic call,[9],inactive; negative
same,mutagenic call,[10],inactive; negative
same,mutagenic call,[11],inactive; negative
same,mutagenic call,[12],inactive; negative
same,mutagenic call,[13],active; positive
same,mutagenic call,[14],inactive; negative
same,mutagenic call,"Test System: E. COLI, Strain/Indicator: WP2, Metabolic Activation: MOUSE, LIVER, S-9, AROCLOR 1254, Method: PREINCUBATION",inactive; negative
same,mutagenic call,"Test System: E. COLI, Strain/Indicator: WP2, Metabolic Activation: NONE, Method: PREINCUBATION",inactive; negative
same,mutagenic call,"Test System: E. COLI, Strain/Indicator: WP2 UVRA, Metabolic Activation: MOUSE, LIVER, S-9, AROCLOR 1254, Method: PREINCUBATION",inactive; negative
same,mutagenic call,"Test System: E. COLI, Strain/Indicator: WP2 UVRA, Metabolic Activation: NONE, Method: PREINCUBATION",inactive; negative
same,mutagenic call,[6],inactive; negative
same,mutagenic call,[7],active; positive
O=c1ccc2ccc3occc3c2o1,mutagenic call,"Test System: AMES SALMONELLA TYPHIMURIUM, Strain/Indicator: TA98, Metabolic Activation: NONE, Method: STANDARD PLATE",inactive; negative
same,mutagenic call,"Test System: AMES SALMONELLA TYPHIMURIUM, Strain/Indicator: TA98, Metabolic Activation: RAT, LIVER, S-9, PHENOBARBITAL, Method: STANDARD PLATE",inactive; negative
CC(=O)N(Nc1ccc2c(c1)Cc1ccccc1-2)c1ccc2c(c1)Cc1ccccc1-2,mutagenic call,"Test System: AMES SALMONELLA TYPHIMURIUM, Strain/Indicator: TA98, Metabolic Activation: RAT, LIVER, S-9, AROCLOR 1254, Method: STANDARD PLATE",active; positive

# Source: PubChem BioAssay AID1259407 (Chemical Carcinogenesis Research Information System (CCRIS), 2018)
